Test results published in paper PMC5051066, “Pharmacokinetics of calycopterin and xanthmicrol, two polymethoxylated hydroxyflavones with anti-angiogenic activities from Dracocephalum kotschyi Bioss” (DARU Journal of Pharmaceutical Sciences, 2016).
Entries after “also recorded” stand apart in the source; their conditions may differ.

How the values were obtained:
[1] = Pharmacokinetic study after i.v. administration in rats (online SPE HPLC of plasma, two-compartment model); assay type: in vivo, male Wistar rats; conditions: for t1/2 (biological half-life) / K12 (rate constant of transfer from the peripheral compartment into the central compartment) / K21 (rate constant of transfer from the central compartment into the peripheral compartment) / half-life / C0 / clearance / k el / Vd: i.v. bolus, 20 mg/kg; for t1/2 (biological half-life) / half-life / C0 / clearance / k el / Vd: plasma; for K12 (rate constant of transfer from the peripheral compartment into the central compartment) / K21 (rate constant of transfer from the central compartment into the peripheral compartment) / C0 / clearance / k el / Vd: two-compartment model; for half-life / C0 / clearance / k el / Vd: male, Wistar, rat, iv; for half-life: read-out: t1/2 (biological half-life) (converted); for C0: read-out: C0 (initial plasma concentration); for clearance: read-out: Cla (clearance rate of the central compartment) (converted); for k el: read-out: Kel (rate constant of elimination from the central compartment) (converted); for Vd: read-out: Vc (volume of distribution of the central compartment)
Description: Confirmation of calycopterin, xanthomicrol and circimaritin identity was carried out using HPLC analysis of purified compound compared to the material obtained from previous work and also IR spectroscopy. A HPLC method with online solid phase extraction was developed for the analysis of xanthomicrol and calycopterin in biological fluids (Fig. 1) using circimaritin as internal standard (IS). 100 μL of plasma and 10 μL of 500 μg/mL IS were mixed in a 2 mL microcentrifuge tube. 40 μL of 10 mg/mL ZnSO4 was added to the tube and the content was mixed. After addition of 200 μL acetonitrile, the tube was placed in an orbital shaker for 10 min. The samples were subsequently centrifuged at 14000 g for 10 min the supernatant was subjected to online extraction/HPLC analysis as follows:
At the start of every run, the sample injection valve and the sample extraction valve were switched to load position (Fig. 1). 250 μL of sample was injected into the sample loop of the sample injection valve. The valve was switched to the inject position which diverted the flow from the online SPE (solid phase extraction) solvent delivery pump (500 μL/min) through the sample loop which in turned carried the sample onto the online SPE column (3×15mm, ODS-2, 5 μm). After 2 min, the sample extraction valve was switched to inject position. This allowed the mobile phase from the analysis solvent delivery pump (1 mL/min) to wash any material retained by the online SPE system, onto the analytical column (4.6×150mm, ODS-2, 5 μm, Tracer Excell, Technochroma, Spain) for separation and measurement. The mobile phase pumped by online SPE solvent delivery pump consisted of acetonitrile:water (35:65) and the mobile phase pumped by the analysis solvent delivery pump was composed of acetonitrile:methanol:water:triethylamine (37:24:38.5:0.5). 16 min after the start of analysis, the mobile phase pumped by the analysis solvent delivery pump was switched to methanol:tetrahydrofurane:dichloromethane (80:10:10) for 3 min. This allowed for highly non-polar compounds retained by the SPE and analytical column to be flushed. Detection was at 263 nm.
All procedures involving animals were carried out after the approval and under the supervision of the Ethics Committee for Animal Expreiments of Iran University for Medical Sciences. In order to be able to withdraw blood samples at predefined time points during pharmacokinetic studies, femoral vein of male Wistar rats, in the weight range of 280 to 300 g, were catheterized, under anaesthesia, using the method described by Jespersen et al.. After the placement of the catheter, the animals were allowed to recover for 24 h, during which time, the rats were checked for signs of bleeding and the catheters were checked for patency.
Xanthomicrol or calycopterin was dissolved in 200 μL of dimethylsulfoxide (DMSO) and injected into the dorsal tail vein of rats. Just before drug injection (time zero) and at 1, 5, 10, 20, 60, 120 and 240 min after drug injection, 300 μL of blood were withdrawn via the femoral vein which had been catheterized previously. In order to prevent phlebotomy induced hypovolemia, 200 μL normal saline was injected via the femoral catheter after each blood sample withdrawal. Blood samples were centrifuged at 4 °C for 10 min at 4000 g. Plasma was collected and stored frozen at -80 °C until needed.
Pharmacokinetic parameters obtained from constructing the residual concentration verses time curve for these two-compartmental models are presented in Table 3. Rate constants for transfer between the central and peripheral compartments (K21and K12) and also the elimination process (Kel) were also calculated.

[2] = Predicted plasma concentration-time profiles from the two compartment models; conditions: rat, single I.V. dose of 30 mg/kg, predicted from two compartment model
Description: Our aim in this work was to find doses of these flavonoids which could produce such plasma levels over extended periods. […] The models generated, were used to predict the plasma concentration-time profiles for different doses of calycopterin and xanthomicrol (Fig. 7). After a single I.V. dose of 30 mg/kg, xanthomicrol plasma concentration would be greater than 500 ng/mL for more than 6 h while calycopterin’s plasma concentration would dip below 500 ng/mL 30 min after administration.
Fig. 7 Predicted plasma calycopterin (●) and xanthomicrol (○) concentration-time profiles after a single IV bolus dose of 30 mg/kg or either compound in the rat. The values were calculated based upon the two compartment models developed in this work

[3] = Solubility in water based solvent systems (vehicle selection); assay type: physicochemical
Description: A number of solvents which were able to dissolve xanthomicrol and calycopterin were investigated as vehicles for the delivery of these compounds into the blood stream. DMSO was chosen as it is relatively benign in terms of toxicological effects (a number of drug formulations or medical devices containing DMSO are marketed e.g., RIMSO-50 from Bioniche Pharma, USA and Dolicur from Schering, Germany). Also, the volume required as vehicle (200 μL) was small compared to total blood volume in rat (about 20 mL) and would be unlikely to have an appreciable effect on pharmacokinetics of flavonoids being studied.

HUVEC cell = test system: HUVEC cell; parameters: method as in PMID 24895220; conditions: at 500 ng/mL; cited from earlier work
Balb/C mice [4] = assay: Toxicological study in mice: serum creatinin, ALT, AST (kidney and liver functions); assay type: in vivo; conditions: for Serum ALT / Serum AST / Serum Creatinin: mice, I.P.
Description: (§1) Toxicity studies were carried out using Balb/C mice in the 25-30 g weight range. Drug administration was via the I.P. methoud. Animals were assigned to five groups of three: one-Control groups which received no treatment, two-Vehicle control which received 60 μL of DMSO (dimethyl sulfoxide) for 6 days, 3- Test group one which received 30 mg/kg body weight xanthomicrol in 60 μL of DMSO per day, 4- Test group two which received 40 mg/kg body weight xanthomicrol on 60 μL of DMSO per day and 5- Test group three which received 50 mg/kg body weight xanthomicrol on 60 μL of DMSO per day. The animals were weighed and examined for changes in skin tone, signs of fur loss and changes in bowl function. On the seventh day, the animals were anaesthetized under an atmosphere of chloroform. Once fully anaesthetized, blood samples were collected from the heart and the animals were killed by cervical dislocation. Serum samples were analyzed for hepatic enzymes AST and ALT [16] and also for creatinin levels. Kidneys, liver, lung, intestines and stomach were removed from animals and placed in 10 % formalin solution for subsequent paraffin embedding, sectioning, staining and histological studies. Tissue sections were examined for fibrotic, inflammatory and vascular changes by a qualified pathologist.

Balb/C mice [5] = assay: Toxicological study in mice: tissue histology; assay type: in vivo
Description: as §1

Balb/C mice [6] = assay: Toxicological study in mice: body weight, mortality, behaviour, overt toxicity; assay type: in vivo; conditions: for toxic effects overall (behavioral, histological, biochemical): repeated administrations at administered doses (30, 40 and 50 mg/kg/day for six days)
Description: as §1

[7] = mice, 30, 40 or 50 mg/kg body weight
[8] = Test group 1 (30 mg/kg per day, I.P.), Lung/Liver/Heart/ Kidney, single animal
[9] = Test group 1 (30 mg/kg per day, I.P.), Small intestine/ Large intestine/ Gastric wall, single animals
[10] = Test group 2 (40 mg/kg per day, I.P.), Lung/Liver/Heart/ Kidney, single animals, listed as xanthimcrol, 40 mg/kg/day
[11] = Test group 2 (40 mg/kg per day, I.P.), Small intestine/ Large intestine/ Gastric wall, single animal
[12] = Test group 3 (50 mg/kg per day, I.P.), Lung/Liver/Heart/ Kidney, single animals
[13] = Test group 3 (50 mg/kg per day, I.P.), Lung/Liver/Heart/ Kidney, single animals, listed as xanthimcrol, 50 mg/kg/day
[14] = Test group 3 (50 mg/kg per day, I.P.), Small intestine/ Large intestine/ Gastric wall, single animal
[15] = mice, 30, 40 and 50 mg/kg/day for six days

COc1c(OC)c(O)c2c(=O)c(OC)c(-c3ccc(O)cc3)oc2c1OC [Calycopterin, calycopterin]
volume of distribution of calycopterin relative to xanthomicrol ([1]; i.v.): about 8 times | t1/2 (biological half-life) [1]: 3.8 h | K12 (rate constant of transfer from the peripheral compartment into the central compartment) [1]: 1.39 h⁻¹ | K21 (rate constant of transfer from the central compartment into the peripheral compartment) [1]: 0.52 h⁻¹ | half-life [1]: ~4 h | C0 [1]: 312 ng/mL | clearance [1]: 280 mL/min | k el [1]: 7.22e-05 s⁻¹ | Vd [1]: 63.9 L | time after administration at which plasma concentration would dip below 500 ng/mL [2]: 30 min | solubility in water based solvent systems [3]: do not dissolve in water based solvent systems | effect on capillary-like tube formation (HUVEC cell): inhibited capillary-like tube formation

COc1c(OC)c(O)c2c(=O)cc(-c3ccc(O)cc3)oc2c1OC [Xanthomicrol, xanthomicrol]
t1/2 (biological half-life) [1]: 4.2 h | K12 (rate constant of transfer from the peripheral compartment into the central compartment) [1]: 1.88 h⁻¹ | K21 (rate constant of transfer from the central compartment into the peripheral compartment) [1]: 0.46 h⁻¹ | half-life [1]: ~4 h | C0 [1]: 2340 ng/mL | clearance [1]: 30 mL/min | k el [1]: 5.83e-05 s⁻¹ | Vd [1]: 8.5 L | time for which plasma concentration would be greater than 500 ng/mL [2]: more than 6 h | difference in alanine transaminase (ALT) activity between control, vehicle and test groups (Balb/C mice [4]; [7]): no significant differences | difference in aspartic acid transaminase (AST) activity between control, vehicle and test groups (Balb/C mice [4]; [7]): no significant differences; also recorded: not significantly different | difference in serum creatinin content between control, vehicle and test groups (Balb/C mice [4]; [7]): no significant differences | Serum ALT (Balb/C mice [4]; 30 mg/kg per day for 6 days): 38 ± 8.8 IU/L | Serum AST (Balb/C mice [4]; 30 mg/kg per day for 6 days): 138 ± 37 IU/L | Serum ALT (Balb/C mice [4]; 40 mg/kg per day for 6 days): 22 ± 19 IU/L | Serum AST (Balb/C mice [4]; 40 mg/kg per day for 6 days): 130 ± 49 IU/L | Serum Creatinin (Balb/C mice [4]; 40 mg/kg per day for 6 days): 0.35 ± 0.036 mg/dL | Serum ALT (Balb/C mice [4]; 50 mg/kg per day for 6 days): 30 ± 3.0 IU/L | Serum AST (Balb/C mice [4]; 50 mg/kg per day for 6 days): 316 ± 163 IU/L | Serum Creatinin (Balb/C mice [4]; 50 mg/kg per day for 6 days): 0.39 ± 0.02 mg/dL | Fibrosin (Balb/C mice [5]; [8]): Absent | Inflammation structural change (Balb/C mice [5]; [8]): Absent | Notes (histology) (Balb/C mice [5]; [8]): Normal | Vascular change (Balb/C mice [5]; [8]): None | Fibrosin (Balb/C mice [5]; [9]): Absent | Inflammation structural change (Balb/C mice [5]; [9]): Absent | Notes (histology) (Balb/C mice [5]; [9]): Normal | Vascular change (Balb/C mice [5]; [9]): None | Fibrosin (Balb/C mice [5]; Test group 2 (40 mg/kg per day, I.P.), Lung/Liver/Heart/ Kidney, single animals): Absent | Inflammation structural change (Balb/C mice [5]; [10]): Lymphocyte infilteration in lung sample, Subcapsular inflammation in liver sample; also recorded: Focal inflammation in lung tissue | Notes (histology) (Balb/C mice [5]; [10]): Normal; also recorded: Increased type II pneumocytes | Vascular change (Balb/C mice [5]; [10]): Hypermic; also recorded: Increased vascularization in lung sample | Fibrosin (Balb/C mice [5]; [11]): Absent | Inflammation structural change (Balb/C mice [5]; [11]): Absent | Notes (histology) (Balb/C mice [5]; [11]): Normal | Vascular change (Balb/C mice [5]; [11]): None | Fibrosin (Balb/C mice [5]; [12]): Absent | Vascular change (Balb/C mice [5]; [12]): None | Inflammation structural change (Balb/C mice [5]; [13]): Focal inflammation in lung sample; also recorded: Absent | Notes (histology) (Balb/C mice [5]; [13]): Increased type II pneumocytes; also recorded: Normal | Fibrosin (Balb/C mice [5]; [14]): Absent | Inflammation structural change (Balb/C mice [5]; [14]): Absent | Vascular change (Balb/C mice [5]; [14]): None | Histological examination of tissue samples compared to the control group (Balb/C mice [5]; [15]): absence of significant pathological change; also recorded: unable to find xenobiotic induced damage to vital organs | change in animal weights compared to control group (Balb/C mice [6]; [15]): no change in animal weights | motor or behavioral abnormalities (Balb/C mice [6]; [15]): no animal showed any signs of motor or behavioral abnormalities | toxic effects overall (behavioral, histological, biochemical) (Balb/C mice [6]; mice): did not appear to have toxic effects | toxic effects overall (behavioral, histological, biochemical) (Balb/C mice [6]; mice, listed as xanthomicrol): failed to show any behavioral, histological and biochemical adverse effects | weight of animals (Balb/C mice [6]; mice, xanthomicrol groups, control group 27.1 g ± 1.2): 27.7 ± 1.7 g | acute toxic effects (Balb/C mice [6]; mouse, in vivo): appears not to have acute toxic effects | solubility in water based solvent systems [3]: do not dissolve in water based solvent systems | effect on capillary-like tube formation (HUVEC cell): inhibited capillary-like tube formation
